Like-named read-outs stand apart in the source and are kept apart here.
Key:
[1] = system: BT-16 cells; type: cell-based; details: BT-16, read-out: MTT: IC50 of the proliferation assay
[2] = system: BT-16 cells; assay: PrestoBlue Cell Viability assay; type: cell-based; details: BT-16, read-out: PB: IC50 of the PrestoBlue Viability assay
Procedure: (§1) Cell viability was assessed using the Presto Blue™ Cell Viability reagent (Thermo Fisher Scientific, Carlsbad, CA, USA) following the manufacturer’s instructions. Cells were plated in 96-well plates at the same densities described above for the proliferation assay. The fluorescence was measured after 24, 48, 72, and 96 h at concentrations ranging from 0.001 to 10 µM of the inhibitor. All assays were performed in triplicate.

[3] = system: D283 cells; assay: PrestoBlue Cell Viability assay; type: cell-based; details: D283, read-out: PB: IC50 of the PrestoBlue Viability assay
Procedure: as §1

[4] = system: MON cells; assay: PrestoBlue Cell Viability assay; type: cell-based; details: read-out: PB: IC50 of the PrestoBlue Viability assay
Procedure: as §1

[5] = target: ABL1 F317I (Homo sapiens, UniProt P00519, F317I); assay: SelectScreen kinase profiling, ZLYTE; type: biochemical
[6] = target: ACVR1 (ALK2) (Homo sapiens, UniProt Q04771); assay: SelectScreen kinase profiling, LanthaScreen binding
[7] = target: ACVR1 (ALK2) R206H (Homo sapiens, UniProt Q04771, R206H); assay: as above
[8] = target: AMPK (A1/B2/G3) (Homo sapiens, UniProt Q13131); assay: SelectScreen kinase profiling, ZLYTE; type: biochemical
[9] = target: CDK8/cyclin C (Homo sapiens, UniProt P49336); assay: SelectScreen kinase profiling, LanthaScreen binding
[10] = target: CDK9/cyclin K (Homo sapiens, UniProt P50750); assay: as above
[11] = target: CSNK1A1 (CK1 alpha 1) (Homo sapiens, UniProt P48729); assay: SelectScreen kinase profiling, ZLYTE; type: biochemical
[12] = target: DDR2 T654M (Homo sapiens, UniProt Q16832, T654M); assay: SelectScreen kinase profiling, LanthaScreen binding
[13] = target: T1, P450 2B6 (Homo sapiens, UniProt P20813)
[14] = target: FGFR3 (Homo sapiens, UniProt P22607); assay: SelectScreen kinase profiling, ZLYTE; type: biochemical; details: FGFR3, 10 µM
[15] = target: FGFR3 K650E (Homo sapiens, UniProt P22607, K650E); assay: SelectScreen kinase profiling, ZLYTE; type: biochemical
[16] = target: GRK6 (Homo sapiens, UniProt P43250); assay: SelectScreen kinase profiling, ZLYTE; type: biochemical; details: GRK6, 10 µM
[17] = target: GRK7 (Homo sapiens, UniProt Q8WTQ7); assay: SelectScreen kinase profiling, ZLYTE; type: biochemical; details: GRK7, 10 µM
[18] = target: HIPK1 (Myak) (Homo sapiens, UniProt Q86Z02); assay: SelectScreen kinase profiling, ZLYTE; type: biochemical
[19] = target: IGF1R (Homo sapiens, UniProt P08069); assay: SelectScreen kinase profiling, ZLYTE; type: biochemical
[20] = target: T2, JAK2 JH1 JH2 V617F (Homo sapiens, UniProt O60674, V617F); assay: SelectScreen kinase profiling, ZLYTE; type: biochemical
T2 construct: JAK2 JH1 JH2 V617F

[21] = target: LIMK2 (Homo sapiens, UniProt P53671); assay: SelectScreen kinase profiling, LanthaScreen binding; details: LIMK2, 10 µM
[22] = target: LRRK2 G2019S (Homo sapiens, UniProt Q5S007, G2019S); assay: SelectScreen kinase profiling, Adapta; type: biochemical
[23] = target: LYN A (Homo sapiens, UniProt P07948); assay: SelectScreen kinase profiling, ZLYTE; type: biochemical
[24] = target: MAP3K5 (ASK1) (Homo sapiens, UniProt Q99683); assay: SelectScreen kinase profiling, LanthaScreen binding
[25] = target: MAPK10 (JNK3) (Homo sapiens, UniProt P53779); assay: SelectScreen kinase profiling, ZLYTE; type: biochemical
[26] = target: MELK (Homo sapiens, UniProt Q14680); assay: SelectScreen kinase profiling, ZLYTE; type: biochemical
[27] = target: MET (cMet) Y1235D (Homo sapiens, UniProt P08581, Y1235D); assay: SelectScreen kinase profiling, ZLYTE; type: biochemical
[28] = target: MKNK1 (MNK1) (Homo sapiens, UniProt Q9BUB5); assay: SelectScreen kinase profiling, ZLYTE; type: biochemical
[29] = target: NUAK2 (Homo sapiens, UniProt Q9H093); assay: SelectScreen kinase profiling, LanthaScreen binding; details: NUAK2, 10 µM
[30] = target: PDK1 (Homo sapiens, UniProt O15530); assay: SelectScreen kinase profiling, ZLYTE; type: biochemical; details: PDK1, 10 µM
[31] = target: PIK3C2B (PI3K-C2 beta) (Homo sapiens, UniProt O00750); assay: SelectScreen kinase profiling, Adapta; type: biochemical
[32] = target: PIM1 (Homo sapiens, UniProt P11309); assay: SelectScreen kinase profiling, ZLYTE; type: biochemical; details: PIM1, 10 µM
[33] = target: PIM2 (Homo sapiens, UniProt Q9P1W9); assay: SelectScreen kinase profiling, ZLYTE; type: biochemical; details: PIM2, 10 µM
[34] = target: PLK1 (Homo sapiens, UniProt P53350); assay: SelectScreen kinase profiling, ZLYTE; type: biochemical; details: PLK1, 10 µM
[35] = target: PLK3 (Homo sapiens, UniProt Q9H4B4); assay: SelectScreen kinase profiling, ZLYTE; type: biochemical; details: PLK3, 10 µM
[36] = target: YES1 (Homo sapiens, UniProt P07947); assay: SelectScreen kinase profiling, ZLYTE; type: biochemical; details: YES1, 10 µM
[37] = target: T1, P450 2B6; assay: SelectScreen P450 Vivid biochemical assay; details: 10000nM; substrate BOMCC

T1 sequence (P20813 whole entry): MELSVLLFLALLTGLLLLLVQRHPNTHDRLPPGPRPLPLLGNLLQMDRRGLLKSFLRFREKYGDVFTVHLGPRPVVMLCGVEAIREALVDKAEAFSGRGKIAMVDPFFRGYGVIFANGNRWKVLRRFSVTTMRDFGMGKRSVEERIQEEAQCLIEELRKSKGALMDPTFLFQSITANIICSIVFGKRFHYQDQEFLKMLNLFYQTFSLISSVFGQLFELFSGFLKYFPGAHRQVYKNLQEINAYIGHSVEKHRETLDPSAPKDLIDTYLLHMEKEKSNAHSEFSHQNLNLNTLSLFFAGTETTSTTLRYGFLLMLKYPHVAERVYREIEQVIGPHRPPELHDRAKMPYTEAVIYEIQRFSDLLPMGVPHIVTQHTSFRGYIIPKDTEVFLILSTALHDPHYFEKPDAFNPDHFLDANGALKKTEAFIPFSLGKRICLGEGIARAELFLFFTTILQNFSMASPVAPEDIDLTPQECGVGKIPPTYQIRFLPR
Chain of MKNK1 (MNK1) (Q9BUB5 whole entry): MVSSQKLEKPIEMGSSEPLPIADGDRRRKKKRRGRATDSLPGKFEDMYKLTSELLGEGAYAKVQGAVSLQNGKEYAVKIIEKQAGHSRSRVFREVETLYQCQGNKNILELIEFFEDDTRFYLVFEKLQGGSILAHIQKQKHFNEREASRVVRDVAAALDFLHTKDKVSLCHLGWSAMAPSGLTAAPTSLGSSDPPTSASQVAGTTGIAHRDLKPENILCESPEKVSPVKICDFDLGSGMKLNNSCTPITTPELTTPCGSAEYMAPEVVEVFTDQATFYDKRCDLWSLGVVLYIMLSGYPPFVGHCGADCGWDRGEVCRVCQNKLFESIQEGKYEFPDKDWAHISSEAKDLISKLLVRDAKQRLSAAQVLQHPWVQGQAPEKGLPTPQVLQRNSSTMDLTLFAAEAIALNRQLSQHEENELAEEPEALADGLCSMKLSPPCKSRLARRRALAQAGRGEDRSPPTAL
Chain of YES1 (P07947 whole entry): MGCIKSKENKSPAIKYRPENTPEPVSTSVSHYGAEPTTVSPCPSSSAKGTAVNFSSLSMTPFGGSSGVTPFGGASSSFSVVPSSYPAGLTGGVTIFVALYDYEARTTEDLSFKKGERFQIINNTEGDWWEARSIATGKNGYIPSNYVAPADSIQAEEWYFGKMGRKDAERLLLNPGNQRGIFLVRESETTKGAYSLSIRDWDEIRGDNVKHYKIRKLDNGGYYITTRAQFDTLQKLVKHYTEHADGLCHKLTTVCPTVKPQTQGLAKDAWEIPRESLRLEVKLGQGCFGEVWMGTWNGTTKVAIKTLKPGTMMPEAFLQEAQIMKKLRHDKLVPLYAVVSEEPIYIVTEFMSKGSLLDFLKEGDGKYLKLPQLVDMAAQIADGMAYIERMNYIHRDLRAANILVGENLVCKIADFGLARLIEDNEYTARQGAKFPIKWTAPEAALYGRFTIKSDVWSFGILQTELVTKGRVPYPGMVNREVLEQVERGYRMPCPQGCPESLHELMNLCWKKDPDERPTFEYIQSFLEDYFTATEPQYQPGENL
Chain of MAPK10 (JNK3) (P53779 whole entry): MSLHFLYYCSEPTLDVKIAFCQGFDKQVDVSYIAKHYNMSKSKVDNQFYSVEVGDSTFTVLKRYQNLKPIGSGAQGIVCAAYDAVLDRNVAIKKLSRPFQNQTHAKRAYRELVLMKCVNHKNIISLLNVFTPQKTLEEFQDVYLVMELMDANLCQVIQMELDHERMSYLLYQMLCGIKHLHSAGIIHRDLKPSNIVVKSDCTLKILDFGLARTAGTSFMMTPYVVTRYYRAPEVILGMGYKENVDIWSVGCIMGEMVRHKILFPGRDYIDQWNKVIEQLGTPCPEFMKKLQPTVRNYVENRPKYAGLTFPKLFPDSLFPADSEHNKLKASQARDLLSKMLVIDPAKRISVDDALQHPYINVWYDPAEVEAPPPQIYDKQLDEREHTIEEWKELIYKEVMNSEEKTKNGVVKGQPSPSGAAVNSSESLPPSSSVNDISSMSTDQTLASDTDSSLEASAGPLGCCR
Chain of FGFR3 (P22607 23-806): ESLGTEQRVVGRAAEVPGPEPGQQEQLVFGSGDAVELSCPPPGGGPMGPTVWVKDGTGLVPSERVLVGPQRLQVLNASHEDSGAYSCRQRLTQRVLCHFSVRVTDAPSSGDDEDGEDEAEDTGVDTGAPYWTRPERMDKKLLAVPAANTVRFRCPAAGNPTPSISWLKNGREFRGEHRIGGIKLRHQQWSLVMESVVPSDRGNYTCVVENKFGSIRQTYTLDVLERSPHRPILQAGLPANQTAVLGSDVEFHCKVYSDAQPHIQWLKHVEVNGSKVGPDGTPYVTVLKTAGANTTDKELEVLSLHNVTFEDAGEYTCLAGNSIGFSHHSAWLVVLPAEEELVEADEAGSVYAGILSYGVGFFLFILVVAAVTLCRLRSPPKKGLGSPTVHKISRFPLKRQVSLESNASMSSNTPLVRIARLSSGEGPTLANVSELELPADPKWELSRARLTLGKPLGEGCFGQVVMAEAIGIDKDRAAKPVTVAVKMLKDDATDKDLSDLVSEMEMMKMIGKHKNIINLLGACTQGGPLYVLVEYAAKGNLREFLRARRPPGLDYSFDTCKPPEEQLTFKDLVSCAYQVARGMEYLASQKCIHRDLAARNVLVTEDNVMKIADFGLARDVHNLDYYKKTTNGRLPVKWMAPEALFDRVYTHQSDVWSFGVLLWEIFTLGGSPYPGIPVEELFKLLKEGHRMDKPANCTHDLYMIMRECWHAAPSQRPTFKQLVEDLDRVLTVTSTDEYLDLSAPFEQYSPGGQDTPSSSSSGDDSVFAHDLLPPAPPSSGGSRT
Chain of PIM2 (Q9P1W9 whole entry): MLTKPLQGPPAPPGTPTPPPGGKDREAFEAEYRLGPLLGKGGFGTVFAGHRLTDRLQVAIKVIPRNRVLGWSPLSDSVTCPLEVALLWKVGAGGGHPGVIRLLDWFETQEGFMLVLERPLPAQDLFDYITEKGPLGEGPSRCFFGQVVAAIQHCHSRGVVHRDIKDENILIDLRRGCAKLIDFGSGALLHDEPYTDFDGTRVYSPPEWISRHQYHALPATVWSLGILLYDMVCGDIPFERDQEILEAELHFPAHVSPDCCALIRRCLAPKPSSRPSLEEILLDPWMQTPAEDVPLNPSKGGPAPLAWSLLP
Chain of CSNK1A1 (CK1 alpha 1) (P48729 whole entry): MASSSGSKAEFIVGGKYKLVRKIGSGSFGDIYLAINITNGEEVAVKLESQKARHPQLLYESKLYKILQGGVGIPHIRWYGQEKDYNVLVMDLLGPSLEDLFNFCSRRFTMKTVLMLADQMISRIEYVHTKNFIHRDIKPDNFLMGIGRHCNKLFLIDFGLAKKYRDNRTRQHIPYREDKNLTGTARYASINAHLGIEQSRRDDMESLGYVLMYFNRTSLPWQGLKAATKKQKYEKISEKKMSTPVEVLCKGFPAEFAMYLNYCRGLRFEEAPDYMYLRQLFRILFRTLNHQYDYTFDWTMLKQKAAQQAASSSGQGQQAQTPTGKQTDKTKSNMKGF
Chain of PIM1 (P11309 whole entry): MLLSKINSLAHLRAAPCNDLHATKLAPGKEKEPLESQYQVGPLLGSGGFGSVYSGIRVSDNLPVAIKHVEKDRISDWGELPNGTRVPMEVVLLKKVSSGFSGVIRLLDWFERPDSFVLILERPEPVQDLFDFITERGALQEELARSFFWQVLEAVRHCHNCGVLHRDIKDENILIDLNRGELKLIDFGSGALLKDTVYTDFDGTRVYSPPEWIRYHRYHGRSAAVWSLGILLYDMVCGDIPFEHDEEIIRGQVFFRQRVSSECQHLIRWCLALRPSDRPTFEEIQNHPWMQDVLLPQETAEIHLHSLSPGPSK
Chain of GRK6 (P43250 whole entry): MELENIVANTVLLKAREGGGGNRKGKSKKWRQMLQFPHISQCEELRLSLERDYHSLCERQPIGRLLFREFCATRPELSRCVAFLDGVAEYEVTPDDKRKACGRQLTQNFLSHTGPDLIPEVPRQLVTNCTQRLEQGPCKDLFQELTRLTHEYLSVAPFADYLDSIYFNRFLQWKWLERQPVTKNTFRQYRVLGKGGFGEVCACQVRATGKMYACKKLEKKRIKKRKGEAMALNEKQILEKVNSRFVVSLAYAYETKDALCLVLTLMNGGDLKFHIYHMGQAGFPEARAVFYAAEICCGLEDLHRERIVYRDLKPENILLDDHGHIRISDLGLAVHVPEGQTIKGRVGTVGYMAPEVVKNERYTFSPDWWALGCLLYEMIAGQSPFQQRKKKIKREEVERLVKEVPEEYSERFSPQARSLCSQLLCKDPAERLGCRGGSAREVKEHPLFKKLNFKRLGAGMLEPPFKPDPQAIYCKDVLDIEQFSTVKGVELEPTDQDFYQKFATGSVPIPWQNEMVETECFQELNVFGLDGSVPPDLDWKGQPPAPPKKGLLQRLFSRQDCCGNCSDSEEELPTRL
Chain of FGFR3 K650E (P22607 23-806 K650E): as the sequence (P22607 23-806) above, with K628E counted along it
Chain of PLK3 (Q9H4B4 whole entry): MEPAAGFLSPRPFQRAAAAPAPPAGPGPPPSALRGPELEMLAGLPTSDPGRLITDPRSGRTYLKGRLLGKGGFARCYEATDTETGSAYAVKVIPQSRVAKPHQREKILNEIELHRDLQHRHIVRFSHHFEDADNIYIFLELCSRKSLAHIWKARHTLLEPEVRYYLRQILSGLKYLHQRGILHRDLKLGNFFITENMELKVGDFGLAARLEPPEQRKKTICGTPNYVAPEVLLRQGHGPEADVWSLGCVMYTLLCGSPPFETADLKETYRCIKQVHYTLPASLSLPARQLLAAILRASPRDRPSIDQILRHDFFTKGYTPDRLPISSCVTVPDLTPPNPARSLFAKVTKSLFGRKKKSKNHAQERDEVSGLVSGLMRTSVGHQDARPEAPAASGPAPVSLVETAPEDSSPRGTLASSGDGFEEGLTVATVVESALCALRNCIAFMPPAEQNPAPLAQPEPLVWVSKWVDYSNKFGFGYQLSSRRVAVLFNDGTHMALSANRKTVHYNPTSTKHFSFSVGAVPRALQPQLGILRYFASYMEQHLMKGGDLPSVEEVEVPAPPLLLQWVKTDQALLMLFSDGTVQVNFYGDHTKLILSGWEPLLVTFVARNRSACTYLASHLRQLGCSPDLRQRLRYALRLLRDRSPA

O=C(c1ccc(/C=C/c2n[nH]c3ccccc23)cc1)N1CCNCC1 [KW-2449]
IC50 [1]: > 10 µM | IC50 [2]: 1840 nM | IC50 [3]: > 10 µM | IC50 [4]: 1740 nM | inhibition at 10 µM [5]: 94% | inhibition at 10 µM [6]: 94% | inhibition at 10 µM [7]: 69% | inhibition at 10 µM [8]: 99% | inhibition at 10 µM [9]: 38% | inhibition at 10 µM [10]: 38% | inhibition at 10 µM [11]: 33% | inhibition at 10 µM [12]: 84% | IC50 [13]: 9.8 µM | inhibition at 10 µM [14]: 97% | inhibition at 10 µM [15]: 97% | inhibition at 10 µM [16]: 62% | inhibition at 10 µM [17]: 41% | inhibition at 10 µM [18]: 70% | inhibition at 10 µM [19]: 95% | inhibition at 10 µM [20]: 94% | inhibition at 10 µM [21]: 24% | inhibition at 10 µM [22]: 100% | inhibition at 10 µM [23]: 89% | inhibition at 10 µM [24]: 63% | inhibition at 10 µM [25]: 59% | inhibition at 10 µM [26]: 101% | inhibition at 10 µM [27]: 88% | inhibition at 10 µM [28]: 52% | inhibition at 10 µM [29]: 62% | inhibition at 10 µM [30]: 77% | inhibition at 10 µM [31]: 9% | inhibition at 10 µM [32]: 42% | inhibition at 10 µM [33]: 8% | inhibition at 10 µM [34]: 16% | inhibition at 10 µM [35]: -10% | inhibition at 10 µM [36]: 95% | % Inhibition 2B6 BOMCC [37]: 48%

— paper PMC6540285, “Evaluation of Protein Kinase Inhibitors with PLK4 Cross-Over Potential in a Pre-Clinical Model of Cancer” (International Journal of Molecular Sciences, 2019)
